In patent US11173151B2, “Substituted triazole derivatives and uses thereof” (BAYER AKTIENGESELLSCHAFT, priority 2017, dated 2021):
pIC50: −log10 of the molar value.

What was measured:
human V1a receptor = target: T1, human V1a receptor (Homo sapiens, UniProt P37288); assay: Cellular in vitro assay for determining vasopressin receptor activity, V1a receptor cell line (CHO, aequorin luminescence); assay type: cell-based; settings: for pIC50: CHO cell line transfected with human V1a receptor, [Arg]-vasopressin at EC50 concentration, read-out: IC50 hV1a; for ratio IC50 hV2/hV1a: selectivity ratio IC50 hV2 / IC50 hV1a
T1 construct: expressed in transfected cells; host or cells: CHO K1 (ATCC), also stably transfected with a modified aequorin
Summary of the method: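 IC50 from inhibition of [Arg]-vasopressin (EC50 concentration)-evoked aequorin luminescence in CHO K1 cells, with 10-min compound pretreatment.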

human V2 receptor = target: T2, human V2 receptor (Homo sapiens, UniProt P30518); assay: Cellular in vitro assay for determining vasopressin receptor activity, V2 receptor cell line (CHO, CRE-luciferase); assay type: cell-based; settings: CHO cell line transfected with human V2 receptor; [Arg8]-vasopressin at EC50 concentration, 3 hours; read-out: IC50 hV2
T2 construct: expressed in transfected cells; host or cells: CHO K1 (ATCC) expressing firefly luciferase under a CRE-responsive promoter
T2 sequence (P30518 whole entry): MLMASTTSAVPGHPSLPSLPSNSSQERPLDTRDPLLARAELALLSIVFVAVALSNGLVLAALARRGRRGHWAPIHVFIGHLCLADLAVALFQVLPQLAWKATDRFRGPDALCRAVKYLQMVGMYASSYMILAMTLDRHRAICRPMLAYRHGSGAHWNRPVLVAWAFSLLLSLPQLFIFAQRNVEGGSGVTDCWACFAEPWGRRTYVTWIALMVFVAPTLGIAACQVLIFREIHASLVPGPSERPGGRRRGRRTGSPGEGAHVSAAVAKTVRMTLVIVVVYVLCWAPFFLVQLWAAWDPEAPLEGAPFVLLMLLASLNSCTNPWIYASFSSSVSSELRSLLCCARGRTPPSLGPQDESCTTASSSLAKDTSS

T1 sequence (P37288 whole entry): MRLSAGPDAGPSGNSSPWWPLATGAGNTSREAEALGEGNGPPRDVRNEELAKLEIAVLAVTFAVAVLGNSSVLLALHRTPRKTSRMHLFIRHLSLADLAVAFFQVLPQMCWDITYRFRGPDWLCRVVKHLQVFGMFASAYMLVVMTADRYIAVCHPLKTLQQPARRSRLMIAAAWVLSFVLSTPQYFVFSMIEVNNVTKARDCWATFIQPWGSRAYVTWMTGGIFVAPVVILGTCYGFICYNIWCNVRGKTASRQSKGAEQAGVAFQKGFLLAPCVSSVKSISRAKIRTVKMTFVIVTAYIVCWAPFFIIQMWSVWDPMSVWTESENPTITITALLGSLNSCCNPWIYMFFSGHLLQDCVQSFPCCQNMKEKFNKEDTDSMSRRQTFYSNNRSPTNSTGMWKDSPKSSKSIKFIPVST

Row | Compound | pIC50 (human V1a receptor) | ratio IC50 hV2/hV1a (human V1a receptor) | pIC50 (human V2 receptor)
1 | O=C(c1ccccc1-n1cnc(Cn2nc(-c3ccc(Cl)cc3)n(C[C@H](O)C(F)(F)F)c2=O)n1)N1CCSCC1 [Example 311, 5-(4-Chlorophenyl)-2-({1-[2-(thiomorpholin-4-ylcarbonyl)phenyl]-1H-1,2,4-triazol-3-yl}methyl)-4-[(2S)-3,3,3-trifluoro-2-hydroxypropyl]-2,4-dihydro-3H-1,2,4-triazol-3-one] | 8.73 | 675.7 | 5.90
2 | Nc1cccc(NC(=O)c2ccccc2-n2cnc(Cn3nc(-c4ccc(Cl)cc4)n(C[C@H](O)C(F)(F)F)c3=O)n2)n1 [Example 312, N-(6-Aminopyridin-2-yl)-2-[3-({3-(4-chlorophenyl)-5-oxo-4-[(2S)-3,3,3-trifluoro-2-hydroxypropyl]-4,5-dihydro-1H-1,2,4-triazol-1-yl}methyl)-1H-1,2,4-triazol-1-yl]benzamide] | 8.16 | 19.7 | 6.87
3 | Cc1ccncc1NC(=O)c1ccccc1-n1cnc(Cn2nc(-c3ccc(Cl)cc3)n(C[C@H](O)C(F)(F)F)c2=O)n1 [Example 313, 2-[3-({3-(4-Chlorophenyl)-5-oxo-4-[(2S)-3,3,3-trifluoro-2-hydroxypropyl]-4,5-dihydro-1H-1,2,4-triazol-1-yl}methyl)-1H-1,2,4-triazol-1-yl]-N-(4-methylpyridin-3-yl)benzamide] | 8.38 | 220.5 | 6.04
4 | CCN(CC)C(=O)c1ccccc1-n1cnc(Cn2nc(-c3ccc(Cl)cc3)n(C[C@H](O)C(F)(F)F)c2=O)n1 [Example 314, 2-[3-({3-(4-Chlorophenyl)-5-oxo-4-[(2S)-3,3,3-trifluoro-2-hydroxypropyl]-4,5-dihydro-1H-1,2,4-triazol-1-yl}methyl)-1H-1,2,4-triazol-1-yl]-N,N-diethylbenzamide] | 8.67 | 237.2 | 6.29
5 | O=C(NCc1ccco1)c1ccccc1-n1cnc(Cn2nc(-c3ccc(Cl)cc3)n(C[C@H](O)C(F)(F)F)c2=O)n1 [Example 315, 2-[3-({3-(4-Chlorophenyl)-5-oxo-4-[(2S)-3,3,3-trifluoro-2-hydroxypropyl]-4,5-dihydro-1H-1,2,4-triazol-1-yl}methyl)-1H-1,2,4-triazol-1-yl]-N-(furan-2-ylmethyl)benzamide] | 8.38 | 37.3 | 6.81
6 | O=C(NC1CCC1)c1ccccc1-n1cnc(Cn2nc(-c3ccc(Cl)cc3)n(C[C@H](O)C(F)(F)F)c2=O)n1 [Example 316, 2-[3-({3-(4-Chlorophenyl)-5-oxo-4-[(2S)-3,3,3-trifluoro-2-hydroxypropyl]-4,5-dihydro-1H-1,2,4-triazol-1-yl}methyl)-1H-1,2,4-triazol-1-yl]-N-cyclobutylbenzamide] | 8.76 | 145.7 | 6.59
7 | O=C(Nc1c(F)cc(F)cc1F)c1ccccc1-n1cnc(Cn2nc(-c3ccc(Cl)cc3)n(C[C@H](O)C(F)(F)F)c2=O)n1 [Example 317, 2-[3-({3-(4-Chlorophenyl)-5-oxo-4-[(2S)-3,3,3-trifluoro-2-hydroxypropyl]-4,5-dihydro-1H-1,2,4-triazol-1-yl}methyl)-1H-1,2,4-triazol-1-yl]-N-(2,4,6-trifluorophenyl)benzamide] | 8.64 | 123.9 | 6.55
8 | O=C(NCC1CCCCC1)c1ccccc1-n1cnc(Cn2nc(-c3ccc(Cl)cc3)n(C[C@H](O)C(F)(F)F)c2=O)n1 [Example 318, 2-[3-({3-(4-Chlorophenyl)-5-oxo-4-[(2S)-3,3,3-trifluoro-2-hydroxypropyl]-4,5-dihydro-1H-1,2,4-triazol-1-yl}methyl)-1H-1,2,4-triazol-1-yl]-N-(cyclohexylmethyl)benzamide] | 7.84 | 63.4 | 6.04
9 | CCCNC(=O)c1ccccc1-n1cnc(Cn2nc(-c3ccc(Cl)cc3)n(C[C@H](O)C(F)(F)F)c2=O)n1 [Example 320, 2-[3-({3-(4-Chlorophenyl)-5-oxo-4-[(2S)-3,3,3-trifluoro-2-hydroxypropyl]-4,5-dihydro-1H-1,2,4-triazol-1-yl}methyl)-1H-1,2,4-triazol-1-yl]-N-propylbenzamide] | 8.87 | 75.9 | 6.99
10 | CC1CCC(NC(=O)c2ccccc2-n2cnc(Cn3nc(-c4ccc(Cl)cc4)n(C[C@H](O)C(F)(F)F)c3=O)n2)CC1 (stereo partly drawn) [Example 321, 2-[3-({3-(4-Chlorophenyl)-5-oxo-4-[(2S)-3,3,3-trifluoro-2-hydroxypropyl]-4,5-dihydro-1H-1,2,4-triazol-1-yl}methyl)-1H-1,2,4-triazol-1-yl]-N-(4-methylcyclohexyl)benzamide] | 7.89 | 43.8 | 6.24
11 | CC(C)(C)CNC(=O)c1ccccc1-n1cnc(Cn2nc(-c3ccc(Cl)cc3)n(C[C@H](O)C(F)(F)F)c2=O)n1 [Example 322, 2-[3-({3-(4-Chlorophenyl)-5-oxo-4-[(2S)-3,3,3-trifluoro-2-hydroxypropyl]-4,5-dihydro-1H-1,2,4-triazol-1-yl}methyl)-1H-1,2,4-triazol-1-yl]-N-(2,2-dimethylpropyl)benzamide] | 8.58 | 103.8 | 6.56
12 | Cc1ccccc1NC(=O)c1ccccc1-n1cnc(Cn2nc(-c3ccc(Cl)cc3)n(C[C@H](O)C(F)(F)F)c2=O)n1 [Example 323, 2-[3-({3-(4-Chlorophenyl)-5-oxo-4-[(2S)-3,3,3-trifluoro-2-hydroxypropyl]-4,5-dihydro-1H-1,2,4-triazol-1-yl}methyl)-1H-1,2,4-triazol-1-yl]-N-(2-methylphenyl)benzamide] | 8.69 | 34.4 | 7.15
13 | CC(C)N(C(=O)c1ccccc1-n1cnc(Cn2nc(-c3ccc(Cl)cc3)n(C[C@H](O)C(F)(F)F)c2=O)n1)C(C)C [Example 324, 2-[3-({3-(4-Chlorophenyl)-5-oxo-4-[(2S)-3,3,3-trifluoro-2-hydroxypropyl]-4,5-dihydro-1H-1,2,4-triazol-1-yl}methyl)-1H-1,2,4-triazol-1-yl]-N,N-di(propan-2-yl)benzamide] | 7.85 | 117.9 | 5.78
14 | O=C(NCC1CC1)c1ccccc1-n1cnc(Cn2nc(-c3ccc(Cl)cc3)n(C[C@H](O)C(F)(F)F)c2=O)n1 [Example 325, 2-[3-({3-(4-Chlorophenyl)-5-oxo-4-[(2S)-3,3,3-trifluoro-2-hydroxypropyl]-4,5-dihydro-1H-1,2,4-triazol-1-yl}methyl)-1H-1,2,4-triazol-1-yl]-N-(cyclopropylmethyl)benzamide] | 9.00 | 118.8 | 6.92
15 | CC1(C)CCCN(C(=O)c2ccccc2-n2cnc(Cn3nc(-c4ccc(Cl)cc4)n(C[C@H](O)C(F)(F)F)c3=O)n2)C1 [Example 327, 5-(4-Chlorophenyl)-2-[(1-{2-[(3,3-dimethylpiperidin-1-yl)carbonyl]phenyl}-1H-1,2,4-triazol-3-yl)methyl]-4-[(2S)-3,3,3-trifluoro-2-hydroxypropyl]-2,4-dihydro-3H-1,2,4-triazol-3-one] | 8.36 | 112.5 | 6.31
16 | CN(C(=O)c1ccccc1-n1cnc(Cn2nc(-c3ccc(Cl)cc3)n(C[C@H](O)C(F)(F)F)c2=O)n1)C1CCCCC1 [Example 329, 2-[3-({3-(4-Chlorophenyl)-5-oxo-4-[(2S)-3,3,3-trifluoro-2-hydroxypropyl]-4,5-dihydro-1H-1,2,4-triazol-1-yl}methyl)-1H-1,2,4-triazol-1-yl]-N-cyclohexyl-N-methylbenzamide] | 7.96 | 171.9 | 5.72
17 | CN(Cc1ccco1)C(=O)c1ccccc1-n1cnc(Cn2nc(-c3ccc(Cl)cc3)n(C[C@H](O)C(F)(F)F)c2=O)n1 [Example 330, 2-[3-({3-(4-Chlorophenyl)-5-oxo-4-[(2S)-3,3,3-trifluoro-2-hydroxypropyl]-4,5-dihydro-1H-1,2,4-triazol-1-yl}methyl)-1H-1,2,4-triazol-1-yl]-N-(furan-2-ylmethyl)-N-methylbenzamide] | 8.00 | 135.7 | 5.87
18 | CN1CCCN(C(=O)c2ccccc2-n2cnc(Cn3nc(-c4ccc(Cl)cc4)n(C[C@H](O)C(F)(F)F)c3=O)n2)CC1 [Example 331, 5-(4-Chlorophenyl)-2-[(1-{2-[(4-methyl-1,4-diazepan-1-yl)carbonyl]phenyl}-1H-1,2,4-triazol-3-yl)methyl]-4-[(2S)-3,3,3-trifluoro-2-hydroxypropyl]-2,4-dihydro-3H-1,2,4-triazol-3-one] | 7.48 | 233.3 | 5.11
19 | CN(C)[C@H]1CCN(C(=O)c2ccccc2-n2cnc(Cn3nc(-c4ccc(Cl)cc4)n(C[C@H](O)C(F)(F)F)c3=O)n2)C1 [Example 332, 5-(4-Chlorophenyl)-2-{[1-(2-{[(3S)-3-(dimethylamino)pyrrolidin-1-yl]carbonyl}phenyl)-1H-1,2,4-triazol-3-yl]methyl}-4-[(2S)-3,3,3-trifluoro-2-hydroxypropyl]-2,4-dihydro-3H-1,2,4-triazol-3-one] | 7.69 | 509.8 | 4.98
20 | CN(C)[C@@H]1CCN(C(=O)c2ccccc2-n2cnc(Cn3nc(-c4ccc(Cl)cc4)n(C[C@H](O)C(F)(F)F)c3=O)n2)C1 [Example 333, 5-(4-Chlorophenyl)-2-{[1-(2-{[(3R)-3-(dimethylamino)pyrrolidin-1-yl]carbonyl}phenyl)-1H-1,2,4-triazol-3-yl]methyl}-4-[(2S)-3,3,3-trifluoro-2-hydroxypropyl]-2,4-dihydro-3H-1,2,4-triazol-3-one] | 8.26 | 1612.6 | 5.05
